# Results reported in ChEMBL document CHEMBL6103549, “PRMT7 in cancer: Structure, effects, and therapeutic potentials” (Eur J Med Chem, 2025).
# What was measured:
# [1] = target: T1, Protein arginine N-methyltransferase 7 (Homo sapiens, UniProt Q9NVM4); experiment: Inhibition of human PRMT7
# T1 sequence (Q9NVM4 whole entry): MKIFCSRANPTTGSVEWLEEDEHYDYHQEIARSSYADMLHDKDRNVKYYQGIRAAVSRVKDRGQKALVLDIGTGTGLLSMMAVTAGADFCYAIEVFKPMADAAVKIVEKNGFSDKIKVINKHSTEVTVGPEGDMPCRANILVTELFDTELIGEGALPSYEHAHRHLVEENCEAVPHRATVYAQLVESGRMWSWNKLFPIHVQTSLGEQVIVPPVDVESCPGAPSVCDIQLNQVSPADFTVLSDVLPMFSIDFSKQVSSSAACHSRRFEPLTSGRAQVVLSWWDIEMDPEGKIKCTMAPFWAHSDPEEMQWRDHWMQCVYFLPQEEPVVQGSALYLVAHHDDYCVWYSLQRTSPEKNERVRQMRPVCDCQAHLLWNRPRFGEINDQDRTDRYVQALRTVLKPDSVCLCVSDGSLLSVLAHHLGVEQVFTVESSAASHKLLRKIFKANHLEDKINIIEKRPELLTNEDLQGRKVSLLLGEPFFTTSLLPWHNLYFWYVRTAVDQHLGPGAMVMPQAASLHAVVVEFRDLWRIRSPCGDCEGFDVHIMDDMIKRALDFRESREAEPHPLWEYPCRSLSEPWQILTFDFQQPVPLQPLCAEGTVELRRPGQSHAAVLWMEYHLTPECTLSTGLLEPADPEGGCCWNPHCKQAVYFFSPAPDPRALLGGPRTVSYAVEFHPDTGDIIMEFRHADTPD
# [2] = target: Protein arginine N-methyltransferase 5 (Homo sapiens, UniProt O14744); experiment: Inhibition of human PRMT5
# Chain of Protein arginine N-methyltransferase 5 (O14744 whole entry): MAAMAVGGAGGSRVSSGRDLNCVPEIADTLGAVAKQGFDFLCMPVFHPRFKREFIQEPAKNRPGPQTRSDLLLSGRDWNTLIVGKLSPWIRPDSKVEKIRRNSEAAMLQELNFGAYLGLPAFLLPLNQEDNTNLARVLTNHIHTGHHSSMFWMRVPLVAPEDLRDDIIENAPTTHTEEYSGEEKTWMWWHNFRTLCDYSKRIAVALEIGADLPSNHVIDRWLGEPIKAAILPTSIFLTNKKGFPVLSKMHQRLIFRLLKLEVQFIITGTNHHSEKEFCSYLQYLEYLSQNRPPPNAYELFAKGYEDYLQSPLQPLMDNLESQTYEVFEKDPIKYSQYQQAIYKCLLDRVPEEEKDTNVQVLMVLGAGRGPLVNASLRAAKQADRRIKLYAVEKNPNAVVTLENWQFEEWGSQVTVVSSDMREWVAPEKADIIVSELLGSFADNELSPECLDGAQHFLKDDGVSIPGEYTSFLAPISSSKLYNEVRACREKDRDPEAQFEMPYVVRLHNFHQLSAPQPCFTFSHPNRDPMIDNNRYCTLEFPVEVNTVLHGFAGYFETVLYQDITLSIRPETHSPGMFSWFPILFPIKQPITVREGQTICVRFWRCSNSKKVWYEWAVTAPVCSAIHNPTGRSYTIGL
# [3] = target: T1, Protein arginine N-methyltransferase 7; experiment: Inhibition of human recombinant His-tagged PRMT7 extracted from Escherichia coli BL21 (DE3)
# [4] = target: T1, Protein arginine N-methyltransferase 7; experiment: Inhibition of human PRMT7 in HEK293T cells assessed as reduction in HSP70 methylation; format: cell-based
# [5] = target: T1, Protein arginine N-methyltransferase 7; experiment: Inhibition of human PRMT7 in HCT-116 cells assessed as reduction in HSP70 methylation; format: cell-based
# [6] = system: MCF7; experiment: Antiproliferative activity against human MCF7 cells assessed as reduction in cell viability by MTT assay; format: functional, cell-based
# [7] = system: KB; experiment: Antiproliferative activity against human KB cells assessed as reduction in cell viability by MTT assay; format: functional, cell-based
# [8] = Antiproliferative activity against human MEF cells assessed as reduction in cell viability by MTT assay; format: functional, cell-based
# [9] = system: HepG2; experiment: Antiproliferative activity against human HepG2 cells assessed as reduction in cell viability by MTT assay; format: functional, cell-based
# [10] = target: T1, Protein arginine N-methyltransferase 7; experiment: Inhibition of full length human recombinant PRMT7 extracted from Sf9 cells using […] as substrate incubated for 1 hr by TopCount scintillation proximity assay; format: cell-free
compound,measurement,setting,value
COc1cc(-c2ncc(F)c(Nc3ccc4nc(C)cc(N)c4c3)n2)cc(OC)c1OC,IC50,[1],5000 nM
same,IC50,[2],50000 nM
C/N=C(\N)N/N=C(\C)c1ccc2oc3ccc(/C(C)=N/N/C(N)=N/C)cc3c2c1,IC50,[3],23300 nM
CC1=C(C)C(=O)C(C(C)(C)CC(=O)N(CCCCSC[C@H]2O[C@@H](n3cnc4c(N)ncnc43)[C@H](O)[C@@H]2O)Cc2cccc(-c3ccc(Cl)cc3)c2)=C(C)C1=O,IC50,[4],2400 nM
same,IC50,[5],2400 nM
same,IC50,[6],2200 nM
same,IC50,[7],2200 nM
same,IC50,[8],28400 nM
same,IC50,[9],2200 nM
Nc1ncnc2c1ncn2[C@@H]1O[C@H](CSCCCCNCc2cccc(-c3ccc(Cl)cc3)c2)[C@@H](O)[C@H]1O,IC50,[10],2500 nM
